Like-named read-outs stand apart in the source and are kept apart here.
Assays:
[1] = system: Human urinary bladder transitional cell papilloma RT4 cells
Experimental: 3D Cell Culture: Human urinary bladder transitional cell papilloma RT4 cells were cultured in McCoy's 5A (Modified) Medium, supplemented with FBS (10%) and penicillin-streptomycin solution (1%), in a 37° C. and 5% CO2 atmosphere. The cells were split every 4 days at a 1:2 ratio. To obtain 3D RT4 cell cultures, 8-well ibidi dishes were pre-coated with 23 μL of Matrigel™ (5 mg/mL) and incubated at 37° C. for 30 minutes, allowing the gel to form. Next, 30 μL of a suspension of RT4 cells at a density of 5×10^6 cells/mL was spread evenly in each well and the dishes were incubated for 30 minutes at 37° C. Finally, 150 μL of RT4 McCoy's medium containing 10% of Matrigel™ was added. The cultures were allowed to grow for 7 days before the experiments, changing the medium every 2 days.
Cytotoxicity Assays: The viability of RT4 3D cultures was quantified using the Alamar Blue assay and visualized using the LIVE/DEAD viability kit following manufacturer's instructions. […] After, the cultures were washed with medium, kept resting for 24 hours and viability was investigated according to manufacturer's instructions.
The spheroids were obtained by seeding RT4 cells in dishes coated with Matrigel™ which resembles the extracellular matrix and provides a 3D environment for cell growth. Then, the cultures were allowed to proliferate for 7 days and spheroid growth was monitored every day. […] After that, the cultures were washed with medium and cell viability and proliferation was assessed using the Alamar Blue assay.
It was further investigated the viability of the spheroids when exposed to the nanomotors (MSNP-Ur/PEG), under a range of concentrations of urea and at different incubation periods. The spheroids were incubated with 12.5 μg/mL of bare nanomotors or antibody-modified nanomotors at 0 mM, 25 mM, 30 mM and 40 mM of urea, for 1, 2 and 4 hours. Next, the cultures were thoroughly washed with medium to remove nanomotors and uncatalyzed urea and kept for 24 hours before analysis. The effect of the nanomotors on bladder cancer spheroids' viability was visualized using the LIVE/DEAD® viability kit and quantified using the Alamar Blue assay (FIG. 3).

[2] = FRET/Cy3 imaging of DNA-switch micromotors by confocal laser scanning microscopy; settings: micromotors in PBS, pH 5 or pH 9
Experimental: To test the functionality of the switch once conjugated to the micromotors, FRET efficiency was monitored through a Leica-SP5 confocal laser scanning microscope (CSLM) equipped with a 63× oil immersion objective (FIG. 6B). For this, micromotors were suspended in PBS either at pH 5 or pH 9 and placed in a 8-well glass bottom dish for their analysis under CSLM. The emission of the donor (Cy3) was recorded using a 564 nm diode laser. The FRET image was obtained by exciting the Cy3 fluorophore and detecting the acceptor (Cy5) emission. Using a custom-made ImageJ plug-in, quantification of the FRET efficiency was achieved by calculating the FRET/Cy3 ratio.
The capability of micromotors to simultaneously record local pH changes produced while they are self-propelling was assessed by combining both optical tracking and FRET imaging using CSLM, where 25 s videos were recorded at 3FPS. In the absence of fuel, a mean FRET/Cy3 ratio of 1.8±0.09 (mean±standard error of the mean) was observed.
To gain insights into the instantaneous pH change around the micromotors from the initial moment of the reaction, micromotors were immobilized onto a glass surface using APTES as a coating agent to provide positive surface charges and stabilize the electrostatic interactions with the negatively charged micromotors. […]

[3] = Fluorescence (ratiometric FRET) pH titration of DNA switch in solution; settings: 50 nM DNA switch
Experimental: Fluorescence measurements were carried out on a Cary Eclipse Fluorimeter (Varian), setting excitation wavelength to λex=530 nm (slitex=5 nm) and acquisition between 540 and 700 nm (slitem=5 nm) using quartz cuvettes of reduced volume (100 μL). All measurements were performed at T=25° C. in 10 mM HEPES. Switches were first diluted in HEPES 10 mM at the concentration of 1 μM. […]
The ratiometric FRET has been calculated as following:
Where FCyS is the maximum fluorescence emission of Cy5 (λem=670 nm) and FCy3 is the maximum fluorescence emission of Cy3 (λem=570 nm). The pH titration curves were obtained by plotting Rat. FRET vs hydronium ions concentration, and fitting the data with the following Langmuir-type equation: […]
Where Rat. FRETTRIPLEX and Rat. FRETDUPLEX represent the FRET signal of the switch in the triplex state (closed) and duplex state (open), respectively and where [H^+] represents the total concentration of hydrogen ions and
As a note, fluorophores employed here are not sensitive to pH in the range of pHs investigated (from pH 5.0 to pH 9.5) to avoid any interferences in the signal. It is important to note that this class of triplex-based switches show opening/closing kinetics sufficiently fast to allow the real time monitoring of pH variation (average time constant ˜100 ms).

With NC(N)=O [Urea, urea] the “spheroid viability (biocompatibility)” value [1] was “not affecting spheroid viability”.

With N [ammonia] the spheroid viability ([1]; 20 mM ammonia) was over 70%, the “spheroid viability (biocompatibility)” value ([1]; 24 hours incubation, range of concentrations) was “increased cytotoxic trend with increasing concentrations” and the spheroid viability ([1]; 24 hours, all ammonia concentrations tested) was over 70%.

With “control switch: non-pH responsive hairpin DNA, SEQ ID NO: 3, Cy3/Cy5 labelled; tested conjugated to micromotors (DNA TCCTTGTCTGTCTGTCTGTCTGAACGTTTTTCGTTC; DNA, backbone not given here; further chemistry not fully specified)” the “FRET/Cy3 emission of switch-modified micromotors at different pH” value [2] was “no significant differences”.

B1: DNA switch: triplex-forming single stranded DNA, SEQ ID NO: 1, labelled with Cy3 and Cy5 (nucleic acid)
DNA: TCCTTGTCTGTCTGTCTGTCTTTTTTGAAGAAGGAATTTATTCCTTCTTCGTTTGCTTCTTCCTT
modifications: DNA, backbone not given here; Cy3 and Cy5 labels, further chemistry not fully specified
For B1, the FRET efficiency ([3]; acidic pH values) was “high FRET efficiency” and the FRET signal ([3]; pH of the solution increased (pH 5.0 to 9.5)) was “gradual decrease”.
